2 compounds from ChEMBL document CHEMBL1201862, “PubChem BioAssay data set” (2004) can be followed below.

The target of assay [1] is T1, Rac GTPase-activating protein 1 (Homo sapiens, UniProt Q9H0H5).
T1 sequence (Q9H0H5 whole entry): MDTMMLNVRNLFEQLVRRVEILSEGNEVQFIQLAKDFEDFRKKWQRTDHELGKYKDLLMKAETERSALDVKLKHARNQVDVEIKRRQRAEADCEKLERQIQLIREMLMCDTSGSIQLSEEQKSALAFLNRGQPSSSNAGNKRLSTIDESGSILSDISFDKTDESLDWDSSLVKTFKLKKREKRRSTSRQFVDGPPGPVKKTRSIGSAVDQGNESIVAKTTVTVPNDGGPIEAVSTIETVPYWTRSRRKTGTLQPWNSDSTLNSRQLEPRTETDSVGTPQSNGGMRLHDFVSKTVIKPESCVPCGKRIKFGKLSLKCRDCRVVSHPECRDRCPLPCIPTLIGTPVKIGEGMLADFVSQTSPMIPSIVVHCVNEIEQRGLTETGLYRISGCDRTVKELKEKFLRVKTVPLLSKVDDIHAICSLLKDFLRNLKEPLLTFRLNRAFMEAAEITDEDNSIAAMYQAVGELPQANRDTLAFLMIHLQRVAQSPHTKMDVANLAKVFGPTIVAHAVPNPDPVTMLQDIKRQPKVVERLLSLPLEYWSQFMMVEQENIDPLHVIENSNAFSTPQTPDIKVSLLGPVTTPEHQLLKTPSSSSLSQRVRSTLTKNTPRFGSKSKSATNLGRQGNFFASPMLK
Nature of the assay: blockers of MgcRacGAP-driven Rac1 GTP hydrolysis – biochemical, ADP Hunter fluorescence, primary and confirmatory, confirmation (AID 624330). Format: functional.

Assay [2] addresses T2, Heat shock factor protein 1 (Mus musculus, UniProt P38532).
T2 sequence (P38532 whole entry): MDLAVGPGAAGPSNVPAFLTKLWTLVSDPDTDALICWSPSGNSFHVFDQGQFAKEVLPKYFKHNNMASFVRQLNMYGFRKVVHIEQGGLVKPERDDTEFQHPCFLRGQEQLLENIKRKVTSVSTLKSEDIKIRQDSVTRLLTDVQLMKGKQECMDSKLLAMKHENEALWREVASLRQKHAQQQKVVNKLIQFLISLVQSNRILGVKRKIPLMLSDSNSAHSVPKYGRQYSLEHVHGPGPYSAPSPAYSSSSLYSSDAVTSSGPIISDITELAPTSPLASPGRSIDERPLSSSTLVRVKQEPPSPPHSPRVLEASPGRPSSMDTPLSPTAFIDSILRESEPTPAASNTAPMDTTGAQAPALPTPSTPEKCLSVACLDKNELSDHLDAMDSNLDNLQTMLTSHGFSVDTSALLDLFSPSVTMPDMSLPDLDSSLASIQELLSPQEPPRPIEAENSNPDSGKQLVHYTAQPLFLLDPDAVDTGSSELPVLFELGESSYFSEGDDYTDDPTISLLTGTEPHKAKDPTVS
Nature of the assay: decrease of HSF1-responsive luciferase luminescence – cell-based, NIH3T3, dose retest, confirmation (AID 2382).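 Further: NIH3T3 fibroblasts with HSF1-driven luciferase reporter stressed by proteasome inhibitor MG132; luminescence from HSF1-driven luciferase expression after 8 hours of MG132 stress.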 Format: functional.

For assay [3], the target named is T3, Luciferin 4-monooxygenase (Photuris pensylvanica, UniProt Q27757).
T3 sequence (Q27757 whole entry): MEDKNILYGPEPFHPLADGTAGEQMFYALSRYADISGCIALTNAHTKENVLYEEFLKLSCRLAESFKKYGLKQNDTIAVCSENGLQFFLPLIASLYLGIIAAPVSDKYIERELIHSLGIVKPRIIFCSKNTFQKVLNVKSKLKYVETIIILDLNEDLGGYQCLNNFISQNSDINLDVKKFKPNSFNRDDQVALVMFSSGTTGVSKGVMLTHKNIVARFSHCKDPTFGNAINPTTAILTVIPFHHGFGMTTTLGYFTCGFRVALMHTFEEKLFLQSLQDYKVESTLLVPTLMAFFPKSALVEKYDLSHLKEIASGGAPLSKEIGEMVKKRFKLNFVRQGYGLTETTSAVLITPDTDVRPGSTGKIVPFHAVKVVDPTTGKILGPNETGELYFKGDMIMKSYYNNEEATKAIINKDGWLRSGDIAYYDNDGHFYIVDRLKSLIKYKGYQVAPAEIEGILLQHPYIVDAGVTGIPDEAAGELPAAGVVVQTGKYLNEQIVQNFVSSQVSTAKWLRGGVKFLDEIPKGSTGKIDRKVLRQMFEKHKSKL
Nature of the assay: inhibition of Cell Titer Glo luciferase signal – biochemical, luminescence, cherry-picks, counter-screen for HSF-1 reporter inhibitor project, dose response (AID 588847).

Assay [4] deals with T4, Long-chain-fatty-acid--AMP ligase FadD28 (Mycobacterium tuberculosis, UniProt P9WQ59).
T4 sequence (P9WQ59 whole entry): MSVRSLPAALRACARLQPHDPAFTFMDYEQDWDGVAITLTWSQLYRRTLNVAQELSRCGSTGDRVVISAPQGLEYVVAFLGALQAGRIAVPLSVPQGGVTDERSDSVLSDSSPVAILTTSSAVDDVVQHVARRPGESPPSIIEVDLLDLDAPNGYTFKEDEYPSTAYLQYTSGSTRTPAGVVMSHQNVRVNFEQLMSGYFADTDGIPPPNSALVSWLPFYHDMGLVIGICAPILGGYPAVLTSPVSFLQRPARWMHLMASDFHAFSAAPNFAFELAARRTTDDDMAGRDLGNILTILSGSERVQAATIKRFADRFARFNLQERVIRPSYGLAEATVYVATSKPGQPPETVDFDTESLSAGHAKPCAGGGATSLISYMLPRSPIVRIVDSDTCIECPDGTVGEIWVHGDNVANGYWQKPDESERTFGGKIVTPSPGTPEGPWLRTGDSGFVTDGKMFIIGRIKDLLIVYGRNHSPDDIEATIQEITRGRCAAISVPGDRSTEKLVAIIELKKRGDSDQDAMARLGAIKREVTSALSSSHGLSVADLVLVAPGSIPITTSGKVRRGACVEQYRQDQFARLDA
Kind of assay: Fluorescence polarization aasay to screen for inhibitors that compete for the binding of FadD28 to a bisubstrate Measured in Biochemical System Using Plate Reader - 2147-01_Inhibitor_Dose_CherryPick_Activity. The assay is classed as functional, Mycobacterium tuberculosis H37Rv.

For the next assay, the target named is T5, Leucine aminopeptidase (Plasmodium falciparum 3D7, UniProt Q8IL11).
T5 sequence (Q8IL11 whole entry): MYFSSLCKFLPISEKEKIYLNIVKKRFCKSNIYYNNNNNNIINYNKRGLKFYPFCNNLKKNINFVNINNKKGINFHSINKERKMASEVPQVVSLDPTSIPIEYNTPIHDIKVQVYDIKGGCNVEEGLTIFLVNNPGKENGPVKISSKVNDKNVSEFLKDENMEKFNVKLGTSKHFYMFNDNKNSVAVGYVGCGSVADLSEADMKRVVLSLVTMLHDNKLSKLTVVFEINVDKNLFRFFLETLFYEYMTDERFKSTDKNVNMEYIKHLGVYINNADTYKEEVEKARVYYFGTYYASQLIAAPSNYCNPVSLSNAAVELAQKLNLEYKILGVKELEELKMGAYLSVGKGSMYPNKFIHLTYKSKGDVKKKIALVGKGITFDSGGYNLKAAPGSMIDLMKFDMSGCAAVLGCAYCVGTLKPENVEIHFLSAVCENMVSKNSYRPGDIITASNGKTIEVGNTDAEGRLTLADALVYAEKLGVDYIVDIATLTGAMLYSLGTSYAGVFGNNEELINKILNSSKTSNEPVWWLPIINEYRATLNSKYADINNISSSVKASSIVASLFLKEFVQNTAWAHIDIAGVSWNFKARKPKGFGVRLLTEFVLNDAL
Nature of the assay: P. falciparum M17LAP inhibitors, primary screen, biochemical, fluorogenic H-Leu-NHMec substrate, 1536-well (AID 1619). Format: functional.

Assay [5] concerns the target T6, Microphthalmia-associated transcription factor (Homo sapiens, UniProt O75030).
T6 sequence (O75030 whole entry): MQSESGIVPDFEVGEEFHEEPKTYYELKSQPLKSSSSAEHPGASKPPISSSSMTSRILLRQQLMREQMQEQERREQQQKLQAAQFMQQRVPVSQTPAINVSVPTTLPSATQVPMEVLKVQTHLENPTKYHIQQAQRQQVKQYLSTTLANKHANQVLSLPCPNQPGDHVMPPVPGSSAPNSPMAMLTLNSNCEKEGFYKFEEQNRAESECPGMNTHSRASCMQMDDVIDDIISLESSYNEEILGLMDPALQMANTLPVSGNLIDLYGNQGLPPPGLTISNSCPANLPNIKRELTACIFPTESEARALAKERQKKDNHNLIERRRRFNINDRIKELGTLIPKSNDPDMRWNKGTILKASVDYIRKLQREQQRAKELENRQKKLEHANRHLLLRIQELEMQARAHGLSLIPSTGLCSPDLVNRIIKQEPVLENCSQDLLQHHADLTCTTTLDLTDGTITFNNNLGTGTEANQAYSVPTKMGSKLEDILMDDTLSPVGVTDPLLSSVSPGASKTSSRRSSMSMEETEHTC
Nature of the assay: reducers of TRPM1 reporter luminescence, concentration series – cell-based, SK-MEL-5, cherry-picked, set 3, MITF inhibitor project, dose response (AID 493073).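 Further: SK-MEL-5 melanoma cells with luciferase driven by the MITF target TRPM1 promoter.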 Format: functional.

Assay [6] in a line: NIH-3T3 fibroblast cytotoxicity, dose response, cytotoxicity control, cell-based, fluorescence, Alamar Blue, secondary assay (AID 2327).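 Further: NIH-3T3 mouse fibroblasts cultured with fluconazole at 8 µg/mL.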 Format: functional.
Assay [7] can be described thus: fluconazole-exposed Candida albicans growth modulators – fluorescence, retest, confirmation (AID 2467). The assay is classed as functional, cell-based.
The target in assay [8] is T7, Serine/threonine-protein phosphatase (Candida dubliniensis (strain CD36 / CBS 7987 / NCPF 3949 / NRRLY-17841) (Yeast), UniProt B9W6M3).
T7 sequence (B9W6M3 whole entry): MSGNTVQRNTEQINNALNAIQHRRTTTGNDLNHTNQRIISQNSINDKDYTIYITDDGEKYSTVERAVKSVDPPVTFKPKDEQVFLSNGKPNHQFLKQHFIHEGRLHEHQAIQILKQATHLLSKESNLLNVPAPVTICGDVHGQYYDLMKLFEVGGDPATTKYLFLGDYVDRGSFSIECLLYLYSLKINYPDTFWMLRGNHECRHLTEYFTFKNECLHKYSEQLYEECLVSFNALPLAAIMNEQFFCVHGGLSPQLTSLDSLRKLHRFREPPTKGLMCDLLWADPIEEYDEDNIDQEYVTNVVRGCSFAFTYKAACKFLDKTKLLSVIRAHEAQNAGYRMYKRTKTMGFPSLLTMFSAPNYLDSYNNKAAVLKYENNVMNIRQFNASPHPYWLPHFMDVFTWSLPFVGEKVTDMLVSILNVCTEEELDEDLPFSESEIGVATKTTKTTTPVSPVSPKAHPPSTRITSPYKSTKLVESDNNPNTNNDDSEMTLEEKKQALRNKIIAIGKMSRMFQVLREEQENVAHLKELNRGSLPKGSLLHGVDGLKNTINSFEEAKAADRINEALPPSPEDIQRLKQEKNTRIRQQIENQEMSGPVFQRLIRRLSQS
Kind of assay: blockers of CaCl2-induced CDRE-lacZ signaling – S. cerevisiae, luminescence, secondary, dose response (AID 2388).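 Further: yeast reporter cells carrying a calcineurin-responsive lacZ construct stimulated with calcium chloride; luminescent beta-galactosidase reporter signal in whole cells rather than isolated phosphatase activity; potency for inhibition where a drop in reporter signal means calcineurin blockade.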 The assay is classed as functional, cell-based.

Assay [9] addresses ATP-dependent molecular chaperone HSP82 (Candida albicans (strain WO-1) (Yeast), UniProt C4YTQ8). Nature of the assay: steroid-induced GRE reporter decrease in yeast – S. cerevisiae, luminescence, Hsp90 inhibitor project, dose response (AID 2400).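 Further: beta-galactosidase luminescence from glucocorticoid response element reporter as proxy for Hsp90 function; inhibitor potency where signal loss means Hsp90 inhibition.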 The assay is classed as functional, cell-based.

Calls of active or inactive are those of the source.

ATP-dependent molecular chaperone HSP82, sequence (C4YTQ8 whole entry): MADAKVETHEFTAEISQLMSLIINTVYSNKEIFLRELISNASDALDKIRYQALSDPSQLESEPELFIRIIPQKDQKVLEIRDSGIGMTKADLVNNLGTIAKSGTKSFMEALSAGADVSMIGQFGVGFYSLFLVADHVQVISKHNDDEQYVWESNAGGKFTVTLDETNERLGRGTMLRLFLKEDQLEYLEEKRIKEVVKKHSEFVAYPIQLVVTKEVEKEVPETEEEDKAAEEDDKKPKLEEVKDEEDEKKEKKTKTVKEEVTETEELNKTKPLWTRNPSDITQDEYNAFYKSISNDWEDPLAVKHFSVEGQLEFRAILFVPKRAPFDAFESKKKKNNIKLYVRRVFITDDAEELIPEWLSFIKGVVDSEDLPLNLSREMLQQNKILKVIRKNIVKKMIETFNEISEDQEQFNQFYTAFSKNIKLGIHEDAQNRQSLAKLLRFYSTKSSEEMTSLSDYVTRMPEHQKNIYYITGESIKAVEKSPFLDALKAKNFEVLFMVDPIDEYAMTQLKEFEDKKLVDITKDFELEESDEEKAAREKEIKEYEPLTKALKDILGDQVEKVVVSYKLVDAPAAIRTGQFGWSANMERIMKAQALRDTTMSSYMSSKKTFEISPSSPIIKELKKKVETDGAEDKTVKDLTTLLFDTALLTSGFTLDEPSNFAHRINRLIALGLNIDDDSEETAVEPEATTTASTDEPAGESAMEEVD

For `Cc1ccc(/C=N/Nc2ccc(C(=O)O)cc2)s1`, the values for the IC50 (in assay [1]; at Leucine aminopeptidase) were 89.2 µM (active) and 20.4 µM (active), respectively. Besides, the EC50 in assay [2] is < 0.16 µM (active). The concentration at half-maximal activity (AC50) in assay [3] was 0.721 µM (active); in assay [4] it was 37.8 µM (active); in assay [5], 3.3 µM (active).

Turning to `N=C(Cc1ccccc1)NOC(=O)c1cccc2ccccc12`, the concentration giving a half-maximal response (EC50) in assay [6] is 19.3 µM (active); in assay [7], 0.717 µM (active); in [8], > 180 µM (inactive); in assay [9], 14 µM (active).
